In patent publication US20030215462A1, “Use of UGT inhibitors to increase bioavailability” (priority 2001, published 2003):
Where “and” joins values, the source holds several entries; their conditions need not be identical. Identical values can stand only once.

Key:
[1] = tested on: T1, UGT enzymes of human liver microsomes; test: Inhibition of 2ME2 glucuronidation (MG1, MG2) in human liver microsomes; type: biochemical; settings: liver 062101, 2ME2 50 μM
T1 construct: other: liver 062101
Excerpt: (§1) Compounds were eluted using a binary solvent gradient system where solvent A was dilute phosphoric acid (pH 3) and solvent B was 80:20 acetonitrile-methanol. […] Detection was at 280 nm.

[2] = tested on: T2, UGT enzymes of human liver microsomes; test: Inhibition of estradiol (E2) glucuronidation in human liver microsomes; type: biochemical; settings: liver 032101, E2 50 μM
T2 construct: residual metabolism (% of control), E2-17-β-D-glucuronide; other: liver 032101; residual metabolism (% of control), E2-17-β-D-glucuronide
Excerpt: as §1

[3] = tested on: UGT enzymes of human liver microsomes; test: as above; type: biochemical; settings: E2 50 μM
Excerpt: as §1

[4] = tested on: T3, UGT enzymes of human liver microsomes; test: as above; type: biochemical; settings: liver 032101, E2 50 μM
T3 construct: residual metabolism (% of control), E2-3-β-D-glucuronide; other: liver 032101; residual metabolism (% of control), E2-3-β-D-glucuronide
Excerpt: as §1

[5] = tested on: T4, UGT enzymes of human liver microsomes; test: Inhibition of labetalol glucuronidation (LG1, LG2) in human liver microsomes; type: biochemical; settings: labetalol 50 μM
T4 construct: residual metabolism (percentage of control), labetalol LG1; other: labetalol 50 μM; residual metabolism (percentage of control), labetalol LG1; residual metabolism (percentage of control), labetalol LG2; inhi
Procedure: Supernatants were analyzed by HPLC with fluorescence detection.
Compounds were eluted using a binary solvent gradient system where solvent A was 5:5:90 tetrahydrofuran-acetonitrile-(NH4)2HPO4 50 mM, while solvent B was 25:25:50 tetrahydrofuran-acetonitrile-(NH4)2HPO4 50 mM. Solvent flow rate was 0.75 ml/min and the column temperature was ambient. […] Labetalol and metabolites were measured by fluorescence detection using a Jasco model FP920 detector. Excitation and emission wavelengths were 370 nm 418 nm respectively. Retention times for salicylamide internal standard and labetalol were 6.6 min and 15.0 min respectively.

UGT1A1 = target: T5, UGT1A1 (Homo sapiens, UniProt P22309); test: Inhibition of raloxifene glucuronidation by recombinant UGT1A1 Supersomes; settings: for inhibition of raloxifene glucuronidation, in words: UGT1A1; for activity at 15 min / activity at 15 min, 10 µM / activity at 15 min, 25 µM / activity at 15 min, 50 µM: human; for activity at 15 min, 10 µM: inhibitor 10 μM; for activity at 15 min, 25 µM: inhibitor 25 μM; for activity at 15 min, 50 µM: inhibitor 50 μM
T5 sequence (P22309 26-533): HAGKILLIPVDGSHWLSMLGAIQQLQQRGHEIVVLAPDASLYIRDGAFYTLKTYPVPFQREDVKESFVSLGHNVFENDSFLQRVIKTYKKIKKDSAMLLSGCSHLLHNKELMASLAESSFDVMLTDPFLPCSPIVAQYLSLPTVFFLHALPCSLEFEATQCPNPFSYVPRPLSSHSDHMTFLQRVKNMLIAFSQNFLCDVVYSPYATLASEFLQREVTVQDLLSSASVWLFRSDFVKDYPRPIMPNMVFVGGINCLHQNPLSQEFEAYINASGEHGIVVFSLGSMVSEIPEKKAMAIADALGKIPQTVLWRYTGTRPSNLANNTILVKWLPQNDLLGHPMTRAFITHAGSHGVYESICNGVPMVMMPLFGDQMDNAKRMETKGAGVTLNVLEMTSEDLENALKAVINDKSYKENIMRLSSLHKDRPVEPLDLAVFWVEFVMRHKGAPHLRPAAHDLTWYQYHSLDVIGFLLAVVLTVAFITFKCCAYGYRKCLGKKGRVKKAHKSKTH
Procedure: (§2) Compounds were eluted using a binary solvent gradient system. Solvent A was water brought to pH 8 with NH4OH. Solvent B was methanol. Solvent flow rate was 1 ml/min and the column temperature was maintained at 50° C. Detection was at 280 nm. […] The system was then returned to the initial conditions and equilibrated for 3 min.

[6] = tested on: T6, UGT enzymes of human liver microsomes; test: Kinetic and Ki studies of inhibitors of 7-HFC glucuronidation in human liver microsomes; type: biochemical; settings: 7-HFC 20-500 μM
T6 construct: percentage of control metabolism, 7-HFC glucuronidation; percentage of control metabolism, 7-HFC glucuronidation

UGT1A10 = target: T7, UGT1A10 (Homo sapiens, UniProt Q9HAW8); test: Inhibition of raloxifene glucuronidation by recombinant UGT1A10 Bacculosomes; settings: for inhibition of raloxifene glucuronidation, in words: UGT1A10; for activity at 15 min, 50 µM: human, Bacculosomes with recombinant human UGT1A10, pH 7.5, probe raloxifene 50 μM, inhibitor 50 μM
T7 sequence (Q9HAW8 26-530): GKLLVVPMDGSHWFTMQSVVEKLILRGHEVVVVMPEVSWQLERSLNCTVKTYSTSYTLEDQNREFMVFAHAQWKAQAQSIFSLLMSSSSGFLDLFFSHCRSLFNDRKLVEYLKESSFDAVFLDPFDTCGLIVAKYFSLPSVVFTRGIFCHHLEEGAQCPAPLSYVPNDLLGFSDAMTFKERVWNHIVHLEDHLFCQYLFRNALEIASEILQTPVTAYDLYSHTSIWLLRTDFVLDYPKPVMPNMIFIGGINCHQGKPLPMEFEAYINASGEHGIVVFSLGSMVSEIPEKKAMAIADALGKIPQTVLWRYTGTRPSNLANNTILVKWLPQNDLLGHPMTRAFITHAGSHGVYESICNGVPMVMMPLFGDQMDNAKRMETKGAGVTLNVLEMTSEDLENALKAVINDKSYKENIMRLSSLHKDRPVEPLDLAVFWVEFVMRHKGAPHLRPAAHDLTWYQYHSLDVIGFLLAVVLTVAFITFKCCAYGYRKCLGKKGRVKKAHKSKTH
Procedure: as §2

[7] = Supersomes with recombinant human UGT1A1, pH 7.5, probe raloxifene 50 μM, formation of glucuronide G1, % of control metabolism, raloxifene G1, UGT1A1
[8] = Supersomes with recombinant human UGT1A1, pH 7.5, probe raloxifene 50 μM, formation of glucuronide G1, Inhibition of raloxifene glucuronidation, G1, UGT1A1, G1, raloxifene 50 μM, 250 μg/ml Supersomes, 1 mM UDPGA, 15 min
[9] = Supersomes with recombinant human UGT1A1, pH 7.5, probe raloxifene 50 μM, formation of glucuronide G2, % of control metabolism, raloxifene G2, UGT1A1
[10] = recombinant UGT1A1 Supersomes, pH 7.5, probe raloxifene 50 μM (formation of glucuronide G2), Inhibition of raloxifene glucuronidation, G2, UGT1A1, G2, raloxifene 50 μM, 250 μg/ml Supersomes, 1 mM UDPGA, 15 min

| SMILES | residual metabolism (% of control), 2ME2 MG1 ([1]; inhibitor 25 μM) | residual metabolism (% of control), 2ME2 MG2 ([1]; inhibitor 25 μM) | residual metabolism (% of control), 2ME2 MG1 ([1]; inhibitor 50 μM) | residual metabolism (% of control), 2ME2 MG2 ([1]; inhibitor 50 μM) | residual metabolism (% of control), 2ME2 MG1 ([1]; inhibitor 100 μM) | residual metabolism (% of control), 2ME2 MG2 ([1]; inhibitor 100 μM) | residual metabolism (% of control), E2-17-β-D-glucuronide ([2]; inhibitor 50 μM) | residual metabolism (% of control), E2-3-β-D-glucuronide ([3]; liver 062101, inhibitor 50 μM) | residual metabolism (% of control), E2-17-β-D-glucuronide ([3]; liver 062101, inhibitor 50 μM) | residual metabolism (% of control), E2-3-β-D-glucuronide ([4]; inhibitor 50 μM) | residual metabolism (percentage of control), labetalol LG1 ([5]; inhibitor 100 μM) | residual metabolism (percentage of control), labetalol LG2 ([5]; inhibitor 100 μM) | residual metabolism (% of control), E2-17-β-D-glucuronide ([2]; inhibitor 100 μM) | residual metabolism (% of control), E2-3-β-D-glucuronide ([4]; inhibitor 100 μM) | inhibition of raloxifene glucuronidation, in words (UGT1A1) | inhibition of raloxifene glucuronidation, in words (UGT1A10) | further results |
| --- | --- | --- | --- | --- | --- | --- | --- | --- | --- | --- | --- | --- | --- | --- | --- | --- | --- |
| O=C(O[C@@H]1Cc2c(O)cc(O)cc2O[C@@H]1c1ccc(O)c(O)c1)c1cc(O)c(O)c(O)c1 [Epicatechin gallate] | 47 (1) % | 79 (2) % | 33 (1) % | 69 (2) % | 17 (1) % | 58 (1) % | 83 (0) % | 34 (1) % | 67 (1) % | 27 (1) % | 74 (1) % | 86 (2) % | – | – | – | – | – |
| CCCCCCCCOC(=O)c1cc(O)c(O)c(O)c1 [Octyl gallate] | – | – | 68 (3) % | 94 (4) % | 51 (0) % | 65 (3) % | 88 (1) % | – | – | 53 (1) % | – | – | 74 (2) % | 33 (2) % | excellent inhibitor | very poor inhibitor | activity at 15 min (UGT1A1; Supersomes with recombinant human UGT1A1, pH 7.5, probe raloxifene 50 μM, formation of glucuronide G1): 65%; activity at 15 min, 10 µM (UGT1A1; [7]): 65%; activity at 15 min, 25 µM (UGT1A1; [7]): 37%; activity at 15 min, 50 µM (UGT1A1; [7]): 18%; activity at 15 min, 25 µM (UGT1A1; [8]): 37%; activity at 15 min, 50 µM (UGT1A1; [8]): 18%; activity at 15 min, 10 µM (UGT1A1; [9]): 75%; activity at 15 min, 25 µM (UGT1A1; [9]): 51%; activity at 15 min, 50 µM (UGT1A1; [9]): 31%; activity at 15 min (UGT1A1; recombinant UGT1A1 Supersomes, pH 7.5, probe raloxifene 50 μM (formation of glucuronide G2)): 75%; activity at 15 min, 25 µM (UGT1A1; [10]): 51%; activity at 15 min, 50 µM (UGT1A1; [10]): 31%; Vmax of 7-HFC glucuronidation (fit of the experiment with this inhibitor) [6]: 57 ± 3 nmol/min/mg; Km ([6]; read-out: Km of 7-HFC glucuronidation (fit of the experiment with this inhibitor)): 81 ± 7 µM; activity at 15 min, 50 µM (UGT1A10; formation of glucuronide G1, % of control metabolism, raloxifene G1, UGT1A10): 63%; activity at 15 min, 50 µM (UGT1A10; formation of glucuronide G2, % of control metabolism, raloxifene G2, UGT1A10): 71% |
| O=c1c(O)c(-c2ccc(O)c(O)c2)oc2cc(O)cc(O)c12 [Quercetin] | 63 (3) % | 87 (3) % | 30 (4) % | 68 (3) % | 15 (0) % | 50 (2) % | 72 (6) % | 30 (1) % | 69 (1) % | 29 (1) % | 56 (8) % and 49 (7) % | 47 (6) % and 43 (9) % | 50 (3) % | 10 (1) % | good inhibitor | only a modest effect | residual metabolism (% of control), E2-3-β-D-glucuronide ([3]; liver 032101, inhibitor 25 μM): 58 (1) %; residual metabolism (% of control), E2-17-β-D-glucuronide ([3]; liver 032101, inhibitor 25 μM): 94 (3) %; residual metabolism (% of control), E2-3-β-D-glucuronide ([3]; liver 062101, inhibitor 25 μM): 56 (3) %; residual metabolism (% of control), E2-17-β-D-glucuronide ([3]; liver 062101, inhibitor 25 μM): 83 (1) %; residual metabolism (% of control), E2-3-β-D-glucuronide ([3]; liver 062101, inhibitor 100 μM): 19 (1) %; residual metabolism (% of control), E2-17-β-D-glucuronide ([3]; liver 062101, inhibitor 100 μM): 57 (2) %; residual metabolism (percentage of control), labetalol LG1 ([5]; inhibitor 50 μM): 78 (4) %; residual metabolism (percentage of control), labetalol LG2 ([5]; inhibitor 50 μM): 70 (3) % |
